# Test results reported in patent US4228304A, “Novel cyclohexanecarboxylic acid and its derivatives” (Hisamitsu Pharmaceutical Co. Inc., priority 1977, dated 1980).
# Assays:
# Acute toxicity (mouse) = settings: in vivo
# Experimental: (§1) Each test compound suspended in 0.5% tragacanth gum-saline was administered orally, subcutaneously or intraperitoneally to animals ddY strain mouse and Wistar strain rats. The 50% lethal dose and the 95% confidence limit were calculated by Litchfield-Wilcoxon's method from the death of animals in 3 weeks following administration.
# Acute toxicity (rabbit) = settings: in vivo, po; female rabbit
# Acute toxicity (dog) = type: in vivo; settings: in vivo, po; male dog
# dog = test: Acute toxicity (dog); type: in vivo; settings: female dog, p.o.; 30240 min
# Acute toxicity (rat) = settings: in vivo
# Experimental: as §1
# [1] = test system: Picryl Chloride induced contact dermatitis; test: Picryl Chloride induced contact dermatitis; type: in vivo, mouse (ddY strain); settings: Mus musculus, po; 100 mg/kg, orally; ear swelling 24 hours after second challenge
# Experimental: (3) Picryl Chloride induced contact dermatitis
# At first 0.1 ml of 7% picryl chloride-ethanol solution was applied to skin of the depilated abdomens (area 2.5×15 mm) of ddY-strain male mice (body weight 20-22 g). After one week each 0.02 ml of 1% picryl chloride-olive oil solution was applied topically to the ears of the mouse. […] After three days 0.1 ml of 7% picryl chloride-ethanol solution was applied again to the depilated abdomens of the mice. After one week, each 0.02 ml of 1% picryl chloride-olive oil solution per ear were applied topically to the bilateral ears, and at same time, the test compounds were administered orally. Immediately before and 24 hours after the second challenge, the thickness of the ears was measured and the swelling was calculated. The percent inhibitions were calculated by the ratio of the each swelling to the control.
# [2] = test system: lung fragment of guinea pig; test: Mediator (histamine) release on lung fragment of guinea pig; type: cell-based, guinea pig (Hartley strain); settings: 10^-4 g/ml
# Experimental: (4) Mediator release on lung fragment of guinea pig.
# A group of Hartley strain male guinea pigs (body weight 250-300 g) were administered intraperitoneally anti-BPO-BGG IgE serum. The animals were sacrificed by decapitation, and those sensitized lungs were isolated for use. […] Following 10 minute incubation, the amount of the released histamine were determined by bioassay.
# [3] = test system: rat adjuvant polyarthritis; test: Effect on rat adjuvant polyarthritis; type: in vivo, rat (Sprague Dawley strain); settings: oral daily: Compound No. 1 200 mg/kg, Ibuprofen 50 mg/kg, Prednisolone 0.5 mg/kg
# Experimental: (5) Effect on rat adjuvant polyarthritis
# A group of eight to ten male Sprague Dawley strain rats (body weight 240-280 g) were used. 0.1 ml of Complete Freuind's adjuvant (CFA, Mycobacterium butyricum, 100 mg/10 cc) was injected intradermally to the right hind sole.
# [4] = test system: passive cutaneous anaphylaxis in rat; test: Homologeous passive cutaneous anaphylaxis in rat; type: in vivo, rat (Wistar strain); settings: 100 mg/kg, orally; exuded pigment vs control
# Experimental: (2) Homologeous passive cutaneous anaphylaxis in rat Each test compound suspended in 0.5% tragacanth gum-distilled water was administered orally to a group of five male Wistar strain rats (body weight 150-200 g). After one hour 0.1 ml of 5% anti-Dinitrophinol conpled Ascaris rat IgE serum-physiological sodium chloride solution was injected intradermally to dorsum of the rat. […] The animals were sacrificed by decapitation 30 minutes after the injection. Thereafter the skin of the animals were removed and the amount of the pigment exuded into the inflamed skin was determined. The percent inhibitions were calculated by the ratio of the amounts of exuded pigments to the control.
smiles,measurement,setting,value
"CC(C)CCC[C@H]1CC[C@@](C)(C(=O)O)CC1 [Compound No. 1, cis-4-isohexyl-1-methylcyclohexanecarboxylic acid]",LD50 at 504 h,"Acute toxicity (mouse); ip, female mouse",998 mg/kg
same,LD50 at 504 h,"Acute toxicity (mouse); ip, male mouse",1110 mg/kg
same,LD50 at 504 h,"Acute toxicity (mouse); po, female mouse",6390 mg/kg
same,LD50 at 504 h,"Acute toxicity (mouse); po, male mouse",5950 mg/kg
same,LD50 at 504 h,"Acute toxicity (mouse); sc, female mouse",> 10000 mg/kg
same,LD50 at 504 h,"Acute toxicity (mouse); sc, male mouse",> 10000 mg/kg
same,LD50 at 504 h,Acute toxicity (rabbit),> 6000 mg/kg
same,LD50 at 504 h,Acute toxicity (dog),> 5000 mg/kg
same,LD50,dog,> 5000 mg/kg
same,LD50 at 504 h,"Acute toxicity (rat); ip, female rat",1690 mg/kg
same,LD50 at 504 h,"Acute toxicity (rat); ip, male rat",2070 mg/kg
same,LD50 at 504 h,"Acute toxicity (rat); po, female rat",> 10000 mg/kg
same,LD50 at 504 h,"Acute toxicity (rat); po, male rat",> 10000 mg/kg
same,LD50 at 504 h,"Acute toxicity (rat); sc, female rat",> 10000 mg/kg
same,LD50 at 504 h,"Acute toxicity (rat); sc, male rat",> 10000 mg/kg
same,inhibition in vivo at 100 mg/kg,[1],49%
same,inhibition (released histamine),[2],24.2%
same,Swelling percent of left hind paw (non-treatment of CFA),[3]; day 0,-1.3±1.8%
same,Swelling percent of right hind paw (treatment of CFA),[3]; day 0,118.1± 5.0%
same,Swelling percent of left hind paw (non-treatment of CFA),[3]; day 1,-3.0±1.2%
same,Swelling percent of right hind paw (treatment of CFA),[3]; day 1,100.0± 5.3%
same,Swelling percent of left hind paw (non-treatment of CFA),[3]; day 4,-0.8±2.0%
same,Swelling percent of right hind paw (treatment of CFA),[3]; day 4,255.4±13.8%
same,Swelling percent of left hind paw (non-treatment of CFA),[3]; day 7,4.5±3.3%
same,Swelling percent of right hind paw (treatment of CFA),[3]; day 7,216.3±12.8%
same,Swelling percent of left hind paw (non-treatment of CFA),[3]; day 10,11.8±2.4%
same,Swelling percent of right hind paw (treatment of CFA),[3]; day 10,173.8± 7.1%
same,Swelling percent of left hind paw (non-treatment of CFA),[3]; day 14,13.3±1.6%
same,Swelling percent of right hind paw (treatment of CFA),[3]; day 14,169.5± 8.0%
same,Swelling percent of left hind paw (non-treatment of CFA),[3]; day 17,13.2±1.7%
same,Swelling percent of right hind paw (treatment of CFA),[3]; day 17,166.0± 8.6%
same,Swelling percent of left hind paw (non-treatment of CFA),[3]; day 21,8.5±2.0%
same,Swelling percent of right hind paw (treatment of CFA),[3]; day 21,163.0±10.5%
same,Inhibition,[4],28%
